The test system of data set [1] is TNF-α. Briefly: Inhibition of TNF-α induced by LPS in mice (DAYNES technique), serum ELISA. It counts as in vivo. Here is the method:
This anti-inflammatory activity was complemented by a study of the immunosuppressive activity of PIV against Tumor Necrosis Factor-α.
Inhibition of the activity of TNF-α by the Peptide PIV
The DAYNES techniques described in Example 8 are used.
40 μg of PIV in 0.2 ml of physiological saline--that is to say 200 μg/ml
25 μg of PIV in 0.2 ml of physiological saline--that is to say 125 μg/ml
10 μg of PIV in 0.2 ml of physiological saline--that is to say 50 μg/ml
It was carried out on mice separated into 5 batches of 5 animals
The animals in the control batches receive an injection of 0.2 ml of physiological saline intravenously. The animals in the PIV batches receive an injection of the product at various dosages intravenously. (Caudal vein)
Immediately after the treatment of the mice, a sublethal dose of LPS (1.2 mg in 0.2 ml of physiological saline) is intraperitoneally injected into each animal in the batches and positive control.
Ninety minutes later, all the mice are punctured through the retroorbital sinuses on dry tubes. As soon as the blood coagulates, the clot is detached. The blood is centrifuged for 10 minutes at 10° C. at 1800 g.
The sera once collected are frozen at -25° C.
The TNF-α contained in these sera is assayed 24 hours after the sampling with the murine TNF-α ELISA assay Kit (ref. 1509-00 GENZYME)
Rapid description of the Kit: the method used for this assay is of the sandwich type.
A first anti-murine TNF-A monoclonal antibody is used.
The samples are then deposited and then a second anti-TNF-α goat antibody is caused to react.
The colored reaction uses o-phenylenediamine (OPD).
The reading is made at 492 nm with a plate reader (TITERTEK MKII MCC 340)
Background: An ELISA detects its analyte on a solid surface through an enzyme-linked reagent.

A short description of data set [2]: Protection of treated animals given a lethal dose of LPS. It counts as in vivo, mice.
Data set [3] relates to embryonic cells (melanoblasts, neuroblasts, myoblasts, epidermal cells, fibroblasts, mesenchymatous cells). Type of data set: cell-based, Triton embryo and Axolotl embryo. On the procedure: Qualitative and quantitative analysis of the effects of PIV on melanocyte differentiation in in vitro culture. Sample to be analyzed--compound 4=PIV Embryonic cells isolated in in vitro culture in a defined, purely saline medium (standard culture conditions: 2 ml of medium/culture). The embryonic territory is collected (from Triton embryo and from Axolotl embryo) from the first stage of melanogenesis, immediately after melanocyte induction. At this early stage of embryonic development, the neural swelling, which has just become individualized, contains all the melanoblastic precursors. The culture of the cells of the neural swelling and of the underlying mesoderm makes it possible to coculture (under completely identical conditions) the melanoblasts with various other cell precursors belonging to various categories: neuroblasts, myoblasts, epidermal cells, fibroplasts [sic], mesenchymatous cells. This allows a comparative kinetic study, on a living material, of the effects of PIV on the melanocytes and various other cell types. Duration of the culture (primary culture): 2 to 3 weeks at 20° C. The cell differentiation appears morphologically from the 3rd day and is practically complete at 8-10 days of culture. A series of PIV concentrations was analyzed: 0.01 μg/ml; 0.1 μg/ml; 1 μg/ml; and 10 μg/ml The following 2 doses were therefore selected for this work: 0.1 and 1 μg/ml. 1 single treatment during the innoculation of cultured cells. After their attachment (3 days at 20° C.), the medium is replaced with fresh medium without the Peptide PIV 1 treatment during the innoculation and a 2nd treatment during the change of medium. We developed two melanin assays: by HPLC with electrochemical detection by spectrophotometry (by adaptation of the method of TOMITA et al. 1990) at 470 nm. The development of these assays was carried out using standard solutions of melanin (Sigma, ref. M 8631) in order to define the comparative sensitivity and the minimum level of detection by either of the methods. The μg is the minimum level which can be assayed by spectrophotometry; the ng is the lower level which can be assayed by HPLC. It should however, be observed that these two techniques, especially the spectrophotometric assay, can be used since, for our cell cultures, 15 embryonic explants associated in culture are sufficient to allow quantification (by spectrophotometry).

Several values for one entry are separate records, joined by “and”; a condition that tells them apart may be missing. Equal values may be shown once. Read-outs that look alike come from different tables or passages of the source.

Consider “[(DL) Lip] His - D.homoPhe - Arg - Trp - NH2 [PIV]”, for which the “mean decreases in TNF-α” value was 37% in data set [1] (50 μg/ml, five studies); 40% in data set [1] (125 μg/ml, five studies); 46% in data set [1] (200 μg/ml, five studies); ~40% in data set [1] (all dosages, all the five studies). In data set [1] (complementary study reported in Example 8), the “immunosuppressive activity against Tumor Necrosis Factor-α” value was -40%. In addition, in data set [2], the “Protection of treated animals (mortality)” value is on record as “highly significant retarded mortality rate”. In addition, in data set [3], the “cell proliferation of epidermis cells, mesenchymatous cells, fibroblasts (in words)” value was “no specific cell proliferation”. Moreover, the “cytotoxic effect on epidermis cells, mesenchymatous cells, fibroblasts (in words)” value in data set [3] is recorded as “no cytotoxic effect”. In addition, the “differentiation and behaviour in vitro of epidermis cells, mesenchymatous cells, fibroblasts (in words)” value in data set [3] is on record as “no retardation or accelaration”. In data set [3], the “number of neurons and size of the cell bodies, neuroblasts (in words)” value is reported as “no specific stimulating effect”. In data set [3], the “size and spreading of epidermis cells, mesenchymatous cells, fibroblasts (in words)” value is given as “no stimulating effect”. Besides, the “effect on melanocyte differentiation, dose/response trial (in words)” value in data set [3] (0.01 μg/ml) is listed as “no effect”; in data set [3] (1 μg/ml), “optimal effect”. The “effect on melanogenesis (in words)” value in data set [3] (0.1 and 1 μg/ml) is “Stimulating effect”. Further, the “Stimulation (melanin, treated vs control cultures)” value in data set [3] (1st to 4th experiment) is 2.5 × and 2.3 × and 1.5 ×. In data set [3] (treated cultures, from the 2nd day after innoculation, vs control cultures), the “appearance of phenotypic differentiation of the melanocytes (in words)” value is listed as “more rapidly”. The “number of melanocytes (in words)” value in data set [3] (treated vs control cultures) was “increase”.

Values taken from patent US5830994A, “Peptide derivatives of alpha-MSH and their application” (Institut Europeen De Biologie Cellulaire, priority 1993, dated 1998).
